What all share (format): cell-based
Test [1] has as its target T1, mGluR7 (Homo sapiens, UniProt Q14831). As to the kind of experiment: Kinetic impedance assay (desensitization) in stable CHO-mGluR7 cells, response to tool activator CPD A after pre-treatment. As to conditions: FIG. 1B. The procedure:
Stable CHO-mGluR7 cells (DiscoverX) were pre-incubated with compounds (EC80, 1 h), washed and after 30 min, impedance changes upon addition of a tool mGluR7 activator (CPD A) were determined (Cellkey, Molecular Devices).

The target of test [2] is T1, mGluR7. As to the kind of experiment: cAMP CRE-luciferase reporter gene assay (Steady Glo) in CHO-CRE-luc cells stably expressing human mGluR7. Set-up: expressed in transfected cells. The procedure: (§1) Compound activities were determined in CHO-CRE-luc cells stably expressing hu/mo mGluR7, using a cAMP reporter gene assay (Steady Glo, Promega). Selectivity was assessed in stable CHO-mGluR4 cells (DiscoverX) and CHO-mGluR8 transients using an HTRF cAMP assay (Cisbio).
The ability of the test compounds to activate mGluR7 was determined by their ability to reduce forskolin stimulated cAMP production. Compounds were assessed in a CRE-directed luciferase reporter gene assay, using a stable CHO cell line expressing the CRE-luc reporter and human mGluR7 genes. In this cell line, production of cAMP stimulated the transcription of the luciferase gene and luciferase activity was then measured in a luminescent enzyme assay (Steady Glo assay; Promega E2550). Activation of mGluR7 decreased the forskolin stimulated luminescence signal.
The day prior to the assay, compounds were serially diluted in DMSO (100× final assay concentration (FAC)), in 384-well plates which were then stored in the dark at room temperature (RT) until use. Cells were seeded at 12.5 k/well in white, clear bottom 384-well plates (Corning 3707) and left for one hour at RT followed by an overnight incubation (37° C.). The following day, the DMSO compound plate was diluted 1:20 (5×FAC) in Opti-MEM I (Life Technologies 11058021). The growth media was removed from the cell plate and replaced with 15 μl Opti-MEM I, followed by a 5 μl addition from the 5× compound plate and a fifteen minute incubation (37° C.). Forskolin (Sigma F3917) was then added to the wells (5 μl of 2.5 μM) and the plate was incubated for five hours (37° C.). During this incubation, the Steady Glo Substrate reagent was warmed to 37° C. Aliquots (11 ml; stored at −20° C.) of this reagent were prepared by dissolving the contents of 1 vial of lyophilised substrate in 100 ml Steady-Glo buffer. A 25 μl addition of the substrate was made to all wells and the plate was incubated for thirty minutes at RT, on a plate shaker (300 rpm; in the dark). Luminescence was then measured using the EnVision Multilabel Reader (Perkin Elmer).
Compound activity was examined using a 10-point, half log concentration-response range and each concentration was tested in duplicate wells. Luminescence values were normalised to ‘maximum’ (forskolin alone) and ‘minimum’ (forskolin in the presence of tool mGluR7 agonist) controls.
A general note: In a reporter assay the amount or activity of a reporter protein is the signal.

For the next test, the target named is mGluR4 (Homo sapiens, UniProt Q14833). The experiment in a line: Selectivity HTRF cAMP assay in stable CHO-mGluR4 cells. The procedure: as §1
(§2) The activation of mGluR7 was measured by the decreased forskolin stimulated luminescence signal. […] Forskolin stimulated luminescence signal was not reduced for mGluR4 and mGluR8.

The target in a further test is T2, mGluR8 (Homo sapiens, UniProt O00222).
T2 construct: expressed in transfected cells; host or cells: CHO (transient transfection)
The experiment in a line: Selectivity HTRF cAMP assay in CHO-mGluR8 transients. Here is the method: as §1, §2
In general terms: TR-FRET usually uses a lanthanide donor and a delayed reading to cut background.

For test [3], the target named is T1, mGluR7. The experiment in a line: Mode of action: cAMP assay in CHO-CRE-luc human mGluR7 cells in presence of orthosteric antagonist LY341495. Set-up: expressed in transfected cells. The note with it: FIG. 2C, 2D. The procedure:
FIGS. 2A-2D are graphs of the results from in vitro cAMP assays in CHO-CRE-luc cells stably expressing human mGluR7 to determine the mode of action of CPD1. FIG. 2A provides the compound activity of non-selective agonist, L-AP4, with increasing concentrations of orthosteric antagonist, LY341495 (LY). FIG. 2B provides the compound activity of a positive allosteric modulator (PAM) compound, VU0422288, for the same concentrations of LY as shown in FIG. 2A.
as §1
The mode of action of the compound in Example 16 was determined by testing activity in the presence of the orthosteric antagonist LY341495 (LY).
In general terms: Changes in cAMP serve as a functional read-out for many G protein-coupled receptors.

Another test has as its target T3, mouse mGluR7 (Mus musculus, UniProt Q68ED2).
T3 construct: expressed in transfected cells
The experiment in a line: cAMP reporter gene assay in CHO-CRE-luc cells stably expressing mouse mGluR7. Here is the method: as §1, §2

The test system of test [4] is mouse cortical synaptosomes. The experiment in a line: Glutamate release assay in mouse cortical synaptosomes. Here is the method: Stimulus induced glutamate release from mouse cortical synaptosomes was monitored using a fluorescence based glutamate dehydrogenase assay. Compounds were incubated for 1 or 10 min for the inhibition or potentiation modes respectively.

The subject of test [5] is CA1 pyramidal cells in mouse hippocampal slices (SC-CA1 pathway). The experiment in a line: Electrophysiology: intracellular EPSC recordings from CA1 pyramidal cells in mouse hippocampal slices. Here is the method:
FIG. 3A is a graph showing the results of a glutamate release assay for CPD1 in mouse synaptosomes. FIG. 3B is a graph showing the results of a glutamate release potentiation assay. FIG. 3C and FIG. 3D provide graphs of electrophysiological recordings from the SC-CA1 pathway in mouse hippocampal slices. FIG. 3C is a graph comparing the changes in intracellular recordings of excitatory postsynaptic currents (EPSCs) as a result of contact with L-AP4 at a concentration of 0.5 mM, CPD 1 at a concentration of 1 μM, and CPD 1 at a concentration of 5 μM. FIG. 3D is a graph comparing the changes in intracellular recordings of EPSCs in mice with wild-type (WT) mGluR7 and mice with an mGluR7 knock-out contacted with CPD 1 at a concentration of 5 μM.
Intracellular recordings were made from CA1 pyramidal cells following SC stimulation in mouse hippocampal slices. Compounds were applied to the slices for 10 min, with recordings made over a 45 minutes period. mGluR7 KO mice were obtained from the Toronto Centre for Phenogenomics.

Here are results for two compounds from patent publication US11465994B2, “MGluR7 agonist compounds for treating mGluR7-regulated diseases, disorders, or conditions” (Takeda Pharmaceutical Company Limited, priority 2016, dated 2022).

Where two headings read alike, the source gives them in different places.

What is called Emax is the greatest response seen or fitted, relative to the assay's reference. By EC50 is commonly meant the concentration needed to bring the measured effect to its halfway point.

T2 sequence (O00222 34-908, species assumed): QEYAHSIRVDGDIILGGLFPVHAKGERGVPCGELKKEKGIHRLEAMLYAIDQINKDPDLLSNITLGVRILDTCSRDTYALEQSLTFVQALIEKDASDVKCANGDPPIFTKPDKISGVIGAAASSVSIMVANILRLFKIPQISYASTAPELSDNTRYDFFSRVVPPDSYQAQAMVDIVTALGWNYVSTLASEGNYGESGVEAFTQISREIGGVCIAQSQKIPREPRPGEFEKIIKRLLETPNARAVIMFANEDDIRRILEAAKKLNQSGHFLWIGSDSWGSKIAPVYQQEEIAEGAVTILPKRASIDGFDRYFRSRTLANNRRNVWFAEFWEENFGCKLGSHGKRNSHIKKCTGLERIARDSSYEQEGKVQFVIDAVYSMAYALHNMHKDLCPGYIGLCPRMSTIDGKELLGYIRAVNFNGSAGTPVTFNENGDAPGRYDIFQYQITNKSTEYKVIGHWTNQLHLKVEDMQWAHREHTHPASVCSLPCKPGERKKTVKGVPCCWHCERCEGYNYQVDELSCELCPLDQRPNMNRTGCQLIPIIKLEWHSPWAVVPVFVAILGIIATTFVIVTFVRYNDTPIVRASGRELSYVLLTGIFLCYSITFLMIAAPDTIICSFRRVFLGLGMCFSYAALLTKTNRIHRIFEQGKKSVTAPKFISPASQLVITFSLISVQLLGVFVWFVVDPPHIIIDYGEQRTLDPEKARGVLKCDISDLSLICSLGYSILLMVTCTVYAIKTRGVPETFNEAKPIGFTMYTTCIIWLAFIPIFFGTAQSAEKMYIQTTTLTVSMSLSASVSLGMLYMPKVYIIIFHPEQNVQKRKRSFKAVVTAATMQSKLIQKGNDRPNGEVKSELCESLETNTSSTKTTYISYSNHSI
T1 sequence (Q14831 35-915): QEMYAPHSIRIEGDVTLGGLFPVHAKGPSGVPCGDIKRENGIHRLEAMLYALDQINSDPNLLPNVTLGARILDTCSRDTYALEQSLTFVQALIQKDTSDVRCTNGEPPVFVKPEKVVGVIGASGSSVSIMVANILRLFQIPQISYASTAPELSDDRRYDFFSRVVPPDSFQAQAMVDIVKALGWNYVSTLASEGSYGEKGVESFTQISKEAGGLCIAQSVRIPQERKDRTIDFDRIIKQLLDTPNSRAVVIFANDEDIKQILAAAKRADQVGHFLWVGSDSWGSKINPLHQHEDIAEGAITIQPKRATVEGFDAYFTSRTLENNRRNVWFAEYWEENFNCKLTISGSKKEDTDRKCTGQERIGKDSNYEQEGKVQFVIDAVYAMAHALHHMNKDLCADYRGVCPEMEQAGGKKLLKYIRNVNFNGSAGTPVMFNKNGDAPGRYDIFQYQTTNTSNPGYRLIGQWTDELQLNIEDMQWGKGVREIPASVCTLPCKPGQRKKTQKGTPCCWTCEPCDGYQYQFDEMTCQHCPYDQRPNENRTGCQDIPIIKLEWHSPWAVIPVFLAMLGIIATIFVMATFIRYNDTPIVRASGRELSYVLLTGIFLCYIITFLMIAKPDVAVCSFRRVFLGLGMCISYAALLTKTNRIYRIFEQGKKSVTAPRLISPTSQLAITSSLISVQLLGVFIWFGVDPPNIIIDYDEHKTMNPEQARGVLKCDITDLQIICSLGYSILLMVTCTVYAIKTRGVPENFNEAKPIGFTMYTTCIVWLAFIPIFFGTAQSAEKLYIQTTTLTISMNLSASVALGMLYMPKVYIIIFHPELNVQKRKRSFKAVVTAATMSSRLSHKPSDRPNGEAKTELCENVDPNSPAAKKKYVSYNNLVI
mGluR4, sequence (Q14833 33-912): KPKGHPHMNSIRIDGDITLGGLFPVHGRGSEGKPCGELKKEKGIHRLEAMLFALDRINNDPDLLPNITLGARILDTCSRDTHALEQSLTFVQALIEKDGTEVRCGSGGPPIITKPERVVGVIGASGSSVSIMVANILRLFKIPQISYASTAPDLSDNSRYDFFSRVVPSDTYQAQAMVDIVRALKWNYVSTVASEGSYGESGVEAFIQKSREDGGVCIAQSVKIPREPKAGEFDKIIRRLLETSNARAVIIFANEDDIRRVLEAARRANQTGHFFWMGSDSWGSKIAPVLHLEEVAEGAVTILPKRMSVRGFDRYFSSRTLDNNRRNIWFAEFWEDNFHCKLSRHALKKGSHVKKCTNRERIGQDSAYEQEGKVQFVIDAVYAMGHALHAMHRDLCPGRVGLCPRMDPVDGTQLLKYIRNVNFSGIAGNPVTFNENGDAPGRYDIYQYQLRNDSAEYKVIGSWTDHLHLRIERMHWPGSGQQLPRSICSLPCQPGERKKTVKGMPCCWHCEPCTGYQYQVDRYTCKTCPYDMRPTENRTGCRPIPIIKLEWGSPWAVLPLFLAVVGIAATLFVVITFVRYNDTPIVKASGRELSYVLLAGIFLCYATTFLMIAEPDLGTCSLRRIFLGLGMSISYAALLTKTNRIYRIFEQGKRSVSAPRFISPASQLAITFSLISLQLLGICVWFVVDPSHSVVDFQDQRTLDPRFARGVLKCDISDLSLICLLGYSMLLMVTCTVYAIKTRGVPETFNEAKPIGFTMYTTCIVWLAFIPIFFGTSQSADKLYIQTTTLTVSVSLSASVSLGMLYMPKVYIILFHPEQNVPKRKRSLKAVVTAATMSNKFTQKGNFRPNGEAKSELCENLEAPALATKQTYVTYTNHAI
T3 sequence (Q68ED2 35-915): as the sequence (Q14831 35-915) above, with S454T, A486P, D544N counted along it

Consider `Cl.Cl.c1ccc(C(NCCNC(c2ccccc2)c2ccccc2)c2ccccc2)cc1` [AMN082, N,N′-dibenzhydrylethane-1,2-diamine dihydrochloride], for which the “EC50 of subsequent response to CPD A increased” value at mGluR7 [1] (pre-treatment 1 hour (EC80)) came to 5 fold. Also, the Emax on mGluR7 [1] (pre-treatment 1 hour (EC80), read-out: Emax of subsequent response to CPD A reduced by) came out at 75%.

With `C[C@H](C(=O)NC1COc2ccccc2C1S(C)(=O)=O)c1ccc(F)cc1` (single isomer, unassigned) [Example 16], at mGluR7 [1] (pre-treatment), the “effect of pre-treatment on response to CPD A (in words)” value is reported as “did not alter”. Further, the “agonist activity at mGluR7, human samples (in words)” value on mGluR7 [2] (FIG. 1A) is given as “full agonist”. In addition, the “Emax mGluR7 (human)” value at mGluR7 [2] (mean ± standard deviation, n=2) was 100 ± 1.8 % control. Further, the EC50 on mGluR7 [2] (mean ± standard deviation, n=2, read-out: EC50 mGluR7 (human)) turned out to be 6.9 ± 0.8 nM. For the same compound, the EC50 on mGluR7 [2] (reduction of forskolin stimulated cAMP (luminescence), CHO CRE-luc human mGluR7, read-out: EC50) stood at 7 nM. Further, at mGluR4 (FIG. 1A), the “activity at mGluR4 (in words)” value was “no activity”. For the same compound, at mGluR4 (tested ≤10 μM), the “EC50 mGluR4” value was “inactive” and the “Emax mGluR4” value is “inactive”. The “activity at mGluR8 (in words)” value at mGluR8 (FIG. 1A) is reported as “no activity”. Moreover, on mGluR8 (tested ≤10 μM), the “EC50 mGluR8” value is “inactive” and the “Emax mGluR8” value is “inactive”. Further, the “effect of increasing LY341495 concentrations on compound activity (in words)” value at mGluR7 [3] is recorded as “unaffected”. The “agonist activity at mGluR7, mouse samples (in words)” value at mouse mGluR7 (FIG. 1A) is reported as “full agonist”. Also, at mouse mGluR7 (mean ± standard deviation, n=2), the EC50 was determined as 1.8 ± 3.5 nM and the “Emax mGluR7 (mouse)” value is on record as 100 ± 0.1 % control. The EC50 in test [4] (Mus musculus, 1 min, short incubation (1 minute), FIG. 3A, read-out: EC50 of reduction of glutamate release) was determined as 34 nM. Further, in test [4] (longer exposure (10 minutes), FIG. 3B), the “enhancement of glutamate release” value was found to be 92%. Moreover, the “reduction of glutamate release” value in test [4] (short incubation (1 minute), FIG. 3A) is reported as 30%. For the same compound, the “activity on EPSCs in slices from mGluR7 KO mice (in words)” value in test [5] (mGluR7 KO mice, 5 μM, FIG. 3D) was “inactive”. Further, in test [5] (wild-type mouse hippocampal slices, FIG. 3C), the “effect on excitatory postsynaptic currents (EPSCs) amplitude (in words)” value is given as “bimodal effect”.
